Source: PubChem BioAssay AID1918931 (Molecular Pharmacology Branch, DTP, NCI, 2023)

Tested on: 138582-337-R-J1-PDC complex spheroid viability
Test: Anticancer human tumor 138582-337-R-J1-PDC patient-derived Merkel cell tumor cell line growth inhibition
Settings: for IC50: curve of first compound; for viability, T/C: stronger effect = lower value
Text: Multicellular complex tumor spheroid response to LSD1 Inhibitor Iadademstat in combination with a variety of drugs and investigational agents in selected tumor cell lines
The current study was undertaken to assess response to LSD1 inhibitors in combination with standard-of-care drugs and investigational agents in solid tumor complex spheroid models as well as in the K-562 leukemia. Complex spheroids include a stromal component modeled by human endothelial cells (HUVEC) and fibroblasts modeled by human mesenchymal stem cells (MSCs). The concentration ranges selected for each drug and investigational agent were based upon clinically achievable concentrations if the clinical Cmax of the agent was known.
Compounds. The drugs and investigational agents used in this study are listed on Table 1. All of the agents used, including staurosporine (NSC755774) and gemcitabine (NSC613327), were obtained from the Developmental Therapeutics Program, NCI. FDA-approved anticancer drugs are available from the NCI at http://dtp.nci.nih.gov/branches/dscb/oncology_drugset_explanation.html. Drugs and investigational agents were >95% pure by proton nuclear magnetic resonance (NMR) and liquid chromatography/mass spectrometry (LC/MS). Stock solutions were prepared at 400x in DMSO, stored at -70 degrees C, and diluted in fresh medium prior to their use. The final concentration of DMSO in cell culture wells never exceeded 0.25% (v/v). The FDA-approved anticancer drug set is available from the Developmental Therapeutics Program at https://dtp.cancer.gov/organization/dscb/obtaining/available_plates.htm. All drugs and investigational agents were tested over a range starting from a high concentration at or near the clinical Cmax and decreasing in half-log increments. If the clinical Cmax for an agent had not been determined, the highest concentration tested was 10 microM.
Cell Lines. The patient-derived cancer cell (PDC) lines: 292921-168-R-J2-PDC, K24384-001-R-PDC, and 521955-158-R2-J5-PDC pancreatic carcinomas, 556581-035-R-J1 ovarian carcinoma, 324938-238-R-J1-PDC, 855422-203-R-J1-PDC and 883617-216-R-J1-PDC urothelial bladder carcinomas, 743489-274-T-PDC renal cell carcinoma, 138582-R-J1 Merkel cell tumor, K60290-347-R-J1 and K57222-313-R-J1-PDC glioblastomas, 653999-131-R-J2-PDC, LG0703-F948-PDC, and 349418-098-R-PDC non-small cell lung carcinomas, 885512-296-R-J2-PDC, 171881-019-R-J1-PDC breast carcinomas and 186277-243-T-J2-PDC and 233499-124-R-J2-PDC colon carcinomas were obtained from the NCI Patient-Derived Models Repository (PDMR, https://pdmr.cancer.gov). The established cell lines NCI/ADR-RES (RRID:CVCL_14520 and OVCAR-5 (RRID:CVCL_1628) ovarian carcinomas, 786-O (RRID:CVCL_1051) and A498 (RRID:CVCL_A498) renal cell carcinoma, NCI-H211 (ATCC, cat. CRL-5824; RRID:CVCL_1529), NCI-H196 (ATCC, cat. CRL-5823, RRID:CVCL_1509), SW 1271 (ATCC, cat. CRL-2177, RRID:CVCL_1716) and NCI-H1876 (ATCC, cat. CRL-5902, RRID:CVCL_1503) small cell lung carcinomas, MDA-MB-231 (RRID:CVCL_0062) and MDA-MB-468 (RRID:CVCL_0419)breast carcinomas (10-12). Pooled donor human umbilical vein endothelial cells (HUVEC, Lonza, cat. CC-2519) and human mesenchymal stem cells (hMSC, Lonza, cat. PT-2501) were purchased from Lonza (Walkersville, MD).
Cell Culture. All cells were maintained in an incubator at 37 degrees C and 5% CO2 with 95% humidity. The PDC lines were cultured according to standard operating procedures established by the NCI PDMR (https://pdmr.cancer.gov). Briefly all PDCs were thawed and cultured in Matrigel-coated flasks prepared with a working solution of 1X Ham's F-12 nutrient mix, without supplementation (Invitrogen, Waltham, MA, cat. 11765054), 100 U/mL penicillin-streptomycin (Invitrogen, cat. 15140122), and 2.5% Matrigel (Corning Inc., Corning, NY, cat. 354248) for the first three passages. […]

[1] = second compound 0.1 µM, first compound 0.00949 µM
[2] = second compound 0.1 µM, first compound 0.03 µM
[3] = second compound 0.1 µM, first compound 0.0949 µM
[4] = second compound 0.1 µM, first compound 0.3 µM
[5] = second compound 0.1 µM, first compound 0.949 µM
[6] = second compound 0.1 µM, first compound 3 µM
[7] = second compound 0.316 µM, first compound 0.00949 µM
[8] = second compound 0.316 µM, first compound 0.03 µM
[9] = second compound 0.316 µM, first compound 0.0949 µM
[10] = second compound 0.316 µM, first compound 0.3 µM
[11] = second compound 0.316 µM, first compound 0.949 µM
[12] = second compound 0.316 µM, first compound 3 µM
[13] = second compound 1 µM, first compound 0.00949 µM
[14] = second compound 1 µM, first compound 0.03 µM
[15] = second compound 1 µM, first compound 0.0949 µM
[16] = second compound 1 µM, first compound 0.3 µM
[17] = second compound 1 µM, first compound 0.949 µM
[18] = second compound 1 µM, first compound 3 µM
[19] = second compound 3.16 µM, first compound 0.00949 µM
[20] = second compound 3.16 µM, first compound 0.03 µM
[21] = second compound 3.16 µM, first compound 0.0949 µM
[22] = second compound 3.16 µM, first compound 0.3 µM
[23] = second compound 3.16 µM, first compound 0.949 µM
[24] = second compound 3.16 µM, first compound 3 µM
[25] = second compound 10 µM, first compound 0.00949 µM
[26] = second compound 10 µM, first compound 0.03 µM
[27] = second compound 10 µM, first compound 0.0949 µM
[28] = second compound 10 µM, first compound 0.3 µM
[29] = second compound 10 µM, first compound 0.949 µM
[30] = second compound 10 µM, first compound 3 µM
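Note: spheroids exposed to agents for 7 days.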
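Throughout, for viability, T/C: 100% = DMSO vehicle control viability.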

SMILES | IC50 (second compound 0.1 µM) [nM] | IC50 (second compound 0.316 µM) [nM] | IC50 (second compound 1 µM) [nM] | IC50 (second compound 3.16 µM) [nM] | IC50 (second compound 10 µM) [nM] | viability, T/C [1] [%] | viability, T/C [2] [%] | viability, T/C [3] [%] | viability, T/C [4] [%] | viability, T/C [5] [%] | viability, T/C [6] [%] | viability, T/C [7] [%] | viability, T/C [8] [%] | viability, T/C [9] [%] | viability, T/C [10] [%] | viability, T/C [11] [%] | viability, T/C [12] [%] | viability, T/C [13] [%] | viability, T/C [14] [%] | viability, T/C [15] [%] | further results
Nc1ccccc1NC(=O)c1ccc(CNC(=O)OCc2cccnc2)cc1 + NC1CC1c1ccc(-c2cccc(O)c2)cc1 | 324 | 355 | 390 | 310 | 262 | 86.8 | 72.7 | 78.6 | 53 | 7.55 | 0.52 | 71.1 | 76.6 | 76.6 | 57.4 | 6.5 | 0.75 | 72.1 | 53 | 79.3 | viability, T/C [16]: 62.6%; viability, T/C [17]: 6.82%; viability, T/C [18]: 0.31%; viability, T/C [19]: 74.5%; viability, T/C [20]: 77%; viability, T/C [21]: 80.9%; viability, T/C [22]: 50.8%; viability, T/C [23]: 6.44%; viability, T/C [24]: 0.64%; viability, T/C [25]: 79.8%; viability, T/C [26]: 70.2%; viability, T/C [27]: 61.5%; viability, T/C [28]: 50.1%; viability, T/C [29]: 4.95%; viability, T/C [30]: 0.46%
O=C(C=Cc1cccc(S(=O)(=O)Nc2ccccc2)c1)NO + NC1CC1c1ccc(-c2cccc(O)c2)cc1 | 90.7 | 74.9 | < 9.49 | 64.8 | 113 | 67.6 | 64.1 | 49.6 | 36.1 | 0.36 | 69.3 | 58 | 53.2 | 48.6 | 21.1 | 0.35 | 59.1 | 44.8 | 51 | 49.6 | viability, T/C [16]: 25%; viability, T/C [17]: 0.46%; viability, T/C [18]: 49.2%; viability, T/C [19]: 49.9%; viability, T/C [20]: 63.3%; viability, T/C [21]: 45.2%; viability, T/C [22]: 25.6%; viability, T/C [23]: 0.37%; viability, T/C [24]: 30.9%; viability, T/C [25]: 66.8%; viability, T/C [26]: 57.6%; viability, T/C [27]: 53.6%; viability, T/C [28]: 29.8%; viability, T/C [29]: 0.44%; viability, T/C [30]: 41.2%
